Reference: ChEMBL document CHEMBL1201862, “PubChem BioAssay data set” (2004)
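Assay format: 96-well plates, 48-hour exposure. GI50 is the concentration that inhibits growth by half.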 Calls of active or inactive are those of the source. No stated cut-off is given here; in the data, active = GI50 up to about 1.1 µM and inactive = higher.

How the values were obtained:
Experiment in all cases: NCI anticancer screen, dose series, 48 h
[1] = test system: BT-549
[2] = test system: CAKI-1
[3] = test system: COLO 205
[4] = test system: DU-145
[5] = test system: HCC 2998
[6] = test system: HOP-62
[7] = test system: K562
[8] = test system: LOX IMVI
[9] = test system: MDA-MB-231
[10] = test system: MDA-MB-435
[11] = test system: NCI-H226
[12] = test system: NCI/ADR-RES
[13] = test system: OVCAR-5
[14] = test system: RXF 393
[15] = test system: SK-MEL-2
[16] = test system: SNB-19
[17] = test system: SR
[18] = test system: T47D
[19] = test system: U-251
[20] = test system: UACC-62

In the case of `Cc1ccc2[nH]c3c(c(=O)n(C)c(=O)n3C)c2c1`, the GI50 [1] was > 100 µM (inactive), the GI50 [2] was > 100 µM (inactive) and the GI50 [3] was > 100 µM (inactive). For the same compound, the GI50 [4] was > 100 µM (inactive), the GI50 [5] was > 100 µM (inactive) and the GI50 [6] was > 100 µM (inactive). For the same compound, the GI50 [7] was > 100 µM (inactive), the GI50 [8] was > 100 µM (inactive) and the GI50 [9] was > 100 µM (inactive). For the same compound, the GI50 [10] was > 100 µM (inactive), the GI50 [11] was > 100 µM (inactive) and the GI50 [12] was > 100 µM (inactive). For the same compound, the GI50 [13] was > 100 µM (inactive), the GI50 [14] was > 10 µM (inactive) and the GI50 [15] was > 100 µM (inactive). The GI50 [16] was > 100 µM (inactive), the GI50 [17] was 84.9 µM (inactive) and the GI50 [18] was > 100 µM (inactive). The GI50 [19] was > 100 µM (inactive) and the GI50 [20] was > 100 µM (inactive).
In the case of `COc1cc2c3c(n(C)c(=O)c2cc1OC)-c1cc2c(cc1C3=O)OCO2`, the GI50 [1] was > 86.9 µM (inactive), the GI50 [2] was 4.98 µM (inactive) and the GI50 [3] was > 100 µM (inactive). The GI50 [4] was 12 µM (inactive), the GI50 [5] was > 80.5 µM (inactive) and the GI50 [6] was 1.87 µM (inactive). For the same compound, the GI50 [7] was 6.87 µM (inactive), the GI50 [8] was 8.59 µM (inactive) and the GI50 [9] was > 57.1 µM (inactive). The GI50 [10] was 90.6 µM (inactive), the GI50 [11] was > 72.8 µM (inactive) and the GI50 [12] was 41.9 µM (inactive). For the same compound, the GI50 [13] was 54 µM (inactive), the GI50 [14] was 30.3 µM (inactive) and the GI50 [15] was > 42 µM (inactive). For the same compound, the GI50 [16] was 27.1 µM (inactive), the GI50 [17] was 0.105 µM (active) and the GI50 [18] was 6.64 µM (inactive). The GI50 [19] was 9.38 µM (inactive) and the GI50 [20] was 1.7 µM (inactive).
For `COc1cc2cc(C(=O)N3C[C@H](CCl)c4c3cc(O)c3ccccc43)[nH]c2c(OC)c1OC`, the GI50 [1] was 0.236 µM (active), the GI50 [2] was 0.789 µM (active) and the GI50 [3] was 1.32 µM (inactive). The GI50 [4] was 0.628 µM (active), the GI50 [5] was 0.16 µM (active) and the GI50 [6] was 0.044 µM (active). For the same compound, the GI50 [7] was 0.25 µM (active), the GI50 [8] was 0.101 µM (active) and the GI50 [9] was 1.69 µM (inactive). For the same compound, the GI50 [10] was 0.222 µM (active), the GI50 [11] was 0.12 µM (active) and the GI50 [12] was 0.136 µM (active). The GI50 [13] was 0.264 µM (active), the GI50 [14] was 0.0459 µM (active) and the GI50 [15] was 0.203 µM (active). For the same compound, the GI50 [16] was 0.246 µM (active), the GI50 [17] was 0.0224 µM (active) and the GI50 [18] was 1.71 µM (inactive). The GI50 [19] was 0.1 µM (active) and the GI50 [20] was 0.106 µM (active).
For `CCOC(=O)c1c(N2CCCC2)[nH]c(=O)c(C(c2ccc(OC)cc2)c2c(O)c(C(=O)OCC)c(N3CCCC3)[nH]c2=O)c1O`, the GI50 [1] was 76 µM (inactive), the GI50 [2] was 28.4 µM (inactive) and the GI50 [3] was > 100 µM (inactive). For the same compound, the GI50 [4] was > 100 µM (inactive), the GI50 [5] was > 100 µM (inactive) and the GI50 [6] was 46.6 µM (inactive). The GI50 [7] was > 100 µM (inactive), the GI50 [8] was > 100 µM (inactive) and the GI50 [9] was 20.8 µM (inactive). The GI50 [10] was > 100 µM (inactive), the GI50 [11] was > 100 µM (inactive) and the GI50 [12] was > 100 µM (inactive). For the same compound, the GI50 [13] was 52.7 µM (inactive), the GI50 [14] was 57.3 µM (inactive) and the GI50 [15] was 5 µM (inactive). The GI50 [16] was > 100 µM (inactive), the GI50 [17] was 88.9 µM (inactive) and the GI50 [18] was > 100 µM (inactive). For the same compound, the GI50 [19] was 48.9 µM (inactive) and the GI50 [20] was > 100 µM (inactive).
